target: T1, CCR4 receptor (Homo sapiens, UniProt P51679); test: CCR4 antagonist activity in Beta-Arrestin Cellular Assay (PathHunter, CCL22 challenge); assay type: cell-based; conditions: CHO-K1 cells expressing the CCR4 receptor; CCL22 at EC80 (15 nM), 90 minutes; 30 min pre-incubation; read-out: Potency (CCR4 antagonist IC50 in the β-arrestin assay)
T1 construct: beta-galactosidase enzyme-fragment tag; From own knowledge, PathHunter uses a ProLink/enzyme-donor fragment, usually at the receptor's C-terminus; expressed in transfected cells; host or cells: CHO-K1
T1 sequence (P51679 1-360): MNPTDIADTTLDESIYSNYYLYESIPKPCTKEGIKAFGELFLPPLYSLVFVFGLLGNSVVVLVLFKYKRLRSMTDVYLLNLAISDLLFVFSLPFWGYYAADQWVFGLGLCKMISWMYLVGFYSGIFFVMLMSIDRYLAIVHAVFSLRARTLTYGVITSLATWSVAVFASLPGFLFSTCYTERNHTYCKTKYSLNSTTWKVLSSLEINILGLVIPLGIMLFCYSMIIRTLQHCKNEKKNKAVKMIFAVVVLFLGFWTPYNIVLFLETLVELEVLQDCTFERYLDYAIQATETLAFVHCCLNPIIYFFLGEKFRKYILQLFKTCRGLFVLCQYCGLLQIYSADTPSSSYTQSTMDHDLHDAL
Description: Example 39. Determination of CCR4 antagonist activity in Beta-Arrestin Cellular Assay
CCR4 Antagonistic Activity was assessed in Beta-Arrestin Cellular Assay. Compounds were assessed in CHO-K1 cells expressing the CCR4 receptor modified to enable β-glactosidase detection of β-arrestin agonist activity stimulated by CCL22 in a chemiluminescence assay. Cells were seeded in a total volume of 20 μL into white walled, 384-well microplates and incubated at 37° C. prior to testing. Cells were pre-incubated with test compound for 30 min at 37° C. followed by agonist challenge with CCL22 at the EC80 concentration (15 nM) for 90 minutes. Assay signal was generated through a single addition of 12.5 or 15 μL ([…]) of PathHunter Detection reagent cocktail, followed by a one-hour incubation at room temperature. Microplates were read following signal generation with a PerkinElmer Envision™ instrument for chemiluminescent signal detection. Antagonist activity was analyzed using CBIS data analysis suite (ChemInnovation, CA). Antagonist activity was characterized as percentage inhibition calculated using the following formula:
An IC50 of >500 nM is designated as Potency C, an IC50 of between 500 nM and 100 nM is designated as Potency B and an IC50 of <100 nM is designated as Potency A.

| SMILES | IC50 |
| --- | --- |
| C[C@@H](Nc1cc(N2CCC([C@H]3CCCN(C4CCOCC4)C3)CC2)nc2ncnn12)c1ccc(Cl)cc1Cl [Example 6, N-((R)-1-(2,4-dichlorophenyl)ethyl)-5-((R)-1-(tetrahydro-2H-pyran-4-yl)-[3,4′-bipiperidin]-1′-yl)-[1,2,4]triazolo[1,5-a]pyrimidin-7-amine] | < 100 nM |
| C[C@@H](Nc1cc(N2CCC([C@H]3CCCN([C@H]4C[C@](C)(C(=O)O)C4)C3)CC2)nc2ccnn12)c1ccc(F)cc1Cl [Example 25, (1R,3r)-3-((R)-1′-(7-(((R)-1-(2-chloro-4-fluorophenyl)ethyl)amino)pyrazolo[1,5-a]pyrimidin-5-yl)-[3,4′-bipiperidin]-1-yl)-1-methylcyclobutane-1-carboxylic acid] | < 100 nM |
| C[C@@H](Nc1cc(N2CCC([C@H]3CCCN(Cc4ncc[nH]4)C3)CC2)nc2ncnn12)c1ccc(Cl)cc1Cl [Example 4, 5-((R)-1-((1H-imidazol-2-yl)methyl)-[3,4′-bipiperidin]-1′-yl)-N-((R)-1-(2,4-dichlorophenyl)ethyl)-[1,2,4]triazolo[1,5-a]pyrimidin-7-amine] | < 100 nM |
| C[C@@H](Nc1cc(N2CCC([C@H]3CCCN(CC#N)C3)CC2)nc2ncnn12)c1ccc(Cl)cc1Cl [Example 3, 2-((R)-1′-(7-(((R)-1-(2,4-dichlorophenyl)ethyl)amino)-[1,2,4]triazolo[1,5-a]pyrimidin-5-yl)-[3,4′-bipiperidin]-1-yl)acetonitrile] | < 100 nM |
| C[C@@H](Nc1cc(N2CCC([C@H]3CCCN([C@H]4C[C@](C)(C(=O)O)C4)C3)CC2)nc2ccnn12)c1ccc(F)cc1F [Example 34, (1R,3r)-3-((R)-1′-(7-(((R)-1-(2,4-difluorophenyl)ethyl)amino)pyrazolo[1,5-a]pyrimidin-5-yl)-[3,4′-bipiperidin]-1-yl)-1-methylcyclobutane-1-carboxylic acid] | < 100 nM |
| Cc1ccc([C@@H](C)Nc2cc(N3CCC([C@H]4CCCN([C@H]5C[C@](C)(C(=O)O)C5)C4)CC3)nc3ncnn23)c(Cl)c1 [Example 30, (1R,3r)-3-((R)-1′-(7-(((R)-1-(2-chloro-4-methylphenyl)ethyl)amino)-[1,2,4]triazolo[1,5-a]pyrimidin-5-yl)-[3,4′-bipiperidin]-1-yl)-1-methylcyclobutane-1-carboxylic acid] | < 100 nM |
| C[C@@H](Nc1cc(N2CCC([C@H]3CCCN([C@H]4C[C@](C)(C(=O)O)C4)C3)CC2)nc2ncnn12)c1ccc(Cl)cc1F [Example 37, (1R,3r)-3-((R)-1′-(7-(((R)-1-(4-chloro-2-fluorophenyl)ethyl)amino)-[1,2,4]triazolo[1,5-a]pyrimidin-5-yl)-[3,4′-bipiperidin]-1-yl)-1-methylcyclobutane-1-carboxylic acid] | < 100 nM |
| C[C@@H](Nc1cc(N2CCC([C@H]3CCCN([C@H]4C[C@](C)(C(=O)O)C4)C3)CC2)nc2ncnn12)c1ccc(F)cc1F [Example 35, (1R,3r)-3-((R)-1′-(7-(((R)-1-(2,4-difluorophenyl)ethyl)amino)-[1,2,4]triazolo[1,5-a]pyrimidin-5-yl)-[3,4′-bipiperidin]-1-yl)-1-methylcyclobutane-1-carboxylic acid] | 100 to 500 nM |
| C[C@@H](Nc1cc(N2CCC([C@H]3CCCN(CCCO)C3)CC2)nc2ncnn12)c1ccc(Cl)cc1Cl [Example 22, 3-((R)-1′-(7-(((R)-1-(2,4-dichlorophenyl)ethyl)amino)-[1,2,4]triazolo[1,5-a]pyrimidin-5-yl)-[3,4′-bipiperidin]-1-yl)propan-1-ol] | < 100 nM |
| C[C@@H](Nc1cc(N2CCC([C@H]3CCCN(Cc4nc[nH]n4)C3)CC2)nc2ncnn12)c1ccc(Cl)cc1Cl [Example 5, 5-((R)-1-((1H-1,2,4-triazol-3-yl)methyl)-[3,4′-bipiperidin]-1′-yl)-N-((R)-1-(2,4-dichlorophenyl)ethyl)-[1,2,4]triazolo[1,5-a]pyrimidin-7-amine] | < 100 nM |
| C[C@@H](Nc1cc(N2CCC([C@H]3CCCN(C)C3)CC2)nc2ncnn12)c1ccc(Cl)cc1Cl [Example 9, N-((R)-1-(2,4-dichlorophenyl)ethyl)-5-((R)-1-methyl-[3,4′-bipiperidin]-1′-yl)-[1,2,4]triazolo[1,5-a]pyrimidin-7-amine] | < 100 nM |
| Cc1cc(Cl)ccc1[C@@H](C)Nc1cc(N2CCC([C@H]3CCCN([C@H]4C[C@](C)(C(=O)O)C4)C3)CC2)nc2ccnn12 [Example 32, (1R,3r)-3-((R)-1′-(7-(((R)-1-(4-chloro-2-methylphenyl)ethyl)amino)pyrazolo[1,5-a]pyrimidin-5-yl)-[3,4′-bipiperidin]-1-yl)-1-methylcyclobutane-1-carboxylic acid] | < 100 nM |
| C[C@@H](Nc1cc(N2CCC(C3CCCN(CCO)C3)C2)nc2ncnn12)c1ccc(Cl)cc1Cl (single isomer, unassigned) [Example 23b] | < 100 nM |
| C[C@@H](Nc1cc(N2CCC([C@H]3CCCN(CCC(=O)O)C3)CC2)nc2ncnn12)c1ccc(Cl)cc1Cl [Example 14, 3-((R)-1′-(7-(((R)-1-(2,4-dichlorophenyl)ethyl)amino)-[1,2,4]triazolo[1,5-a]pyrimidin-5-yl)-[3,4′-bipiperidin]-1-yl)propanoic acid] | < 100 nM |
| C[C@@H](Nc1cc(N2CCC([C@H]3CCCNC3)CC2)nc2ncnn12)c1ccc(Cl)cc1Cl [Example 1, 5-((R)-[3,4′-bipiperidin]-1′-yl)-N-((R)-1-(2,4-dichlorophenyl)ethyl)-[1,2,4]triazolo[1,5-a]pyrimidin-7-amine] | < 100 nM |
| C[C@@H](Nc1cc(N2CCC([C@H]3CCCN([C@H]4C[C@](C)(C(=O)O)C4)C3)CC2)nc2ncnn12)c1ccc(Cl)cc1Cl [Example 18, (1R,3r)-3-((R)-1′-(7-(((R)-1-(2,4-dichlorophenyl)ethyl)amino)-[1,2,4]triazolo[1,5-a]pyrimidin-5-yl)-[3,4′-bipiperidin]-1-yl)-1-methylcyclobutane-1-carboxylic acid] | 100 to 500 nM |
| C[C@@H](Nc1cc(N2CCC([C@H]3CCCN(C4CCCC4)C3)CC2)nc2ncnn12)c1ccc(Cl)cc1Cl [Example 10, 5-((R)-1-cyclopentyl-[3,4′-bipiperidin]-1′-yl)-N-((R)-1-(2,4-dichlorophenyl)ethyl)-[1,2,4]triazolo[1,5-a]pyrimidin-7-amine] | < 100 nM |
| C[C@@H](Nc1cc(N2CCC([C@H]3CCCN([C@H]4C[C@](C)(C(=O)O)C4)C3)CC2)nc2ccnn12)c1ccc(Cl)cc1F [Example 38, (1R,3r)-3-((R)-1′-(7-(((R)-1-(4-chloro-2-fluorophenyl)ethyl)amino)pyrazolo[1,5-a]pyrimidin-5-yl)-[3,4′-bipiperidin]-1-yl)-1-methylcyclobutane-1-carboxylic acid] | < 100 nM |
| C[C@@H](Nc1cc(N2CCC([C@H]3CCCN(CCO)C3)CC2)nc2ncnn12)c1ccc(Cl)cc1Cl [Example 8, 2-((R)-1′-(7-(((R)-1-(2,4-dichlorophenyl)ethyl)amino)-[1,2,4]triazolo[1,5-a]pyrimidin-5-yl)-[3,4′-bipiperidin]-1-yl)ethan-1-ol] | < 100 nM |

From patent US20250122208A1, “CHEMOKINE RECEPTOR MODULATORS AND USES THEREOF” (RAPT THERAPEUTICS, INC., priority 2023, published 2025)
